Measurements as given in patent US12286618B2, “Lactic acid bacteria” (priority 2018, dated 2025).

Target: Streptococcus thermophilus glucokinase (GlcK) DGCC7710 variant E275K, strain DSM32587 (DGCC12534), SEQ ID NO: 22 (Streptococcus thermophilus, UniProt Q5M4Y5, E275K)
Conditions: substrate glucose (0, 5, 10, 15, 20 mM); 1 mM ATP; pH 7.2; 30° C.; crude extract; mean of three independent experiments
Procedure: A fresh overnight culture of the Streptococcus thermophilus strain to be assayed in M17 containing 30 g/L lactose is obtained and used to inoculate at 1% (vol/vol) 10 ml of fresh M17 30 g/L lactose. Cells are harvested by centrifugation (6000 g, 10 min, 4° C.) at a 600 nm optical density (OD600) of 0.8+/−0.2, washed in 5 ml cold GLCK buffer (5 mM MgCl2, 10 mM K2HPO4/KH2PO4 [pH 7.2]), and resuspended in 500 μl cold GLCK buffer. EDTA-free protease inhibitors “cOmplete™” (Roche, supplier reference 04693132001) is added in GLCK buffer as described by the provider. […] Total protein content is determined by using the FLUKA Protein Quantification Kit-Rapid (ref 51254). The glucokinase activity in the cell extracts is determined spectrophotometrically by a glucose-6-phosphate dehydrogenase (G-6PDH, EC1.1.1.49): NADPH-coupled assay (Porter et al., 1982), essentially as described by Pool et al. (2006). […] The optical density at 340 nm is measured for 5 minutes by using a Synergy HT multi-detection microplate reader (BIO-TEK). […]
A fresh overnight culture of a Streptococcus thermophilus strain in M17 containing 30 g/L lactose was obtained and used to inoculate at 1% (vol/vol) 10 ml of fresh M17 30 g/L lactose. […] Total protein content was determined by using the FLUKA Protein Quantification Kit-Rapid (ref 51254). […]

Streptococcus thermophilus glucokinase (GlcK) DGCC7710 variant E275K, strain DSM32587 (DGCC12534), SEQ ID NO: 22, sequence (Q5M4Y5 entry or part of it E275K): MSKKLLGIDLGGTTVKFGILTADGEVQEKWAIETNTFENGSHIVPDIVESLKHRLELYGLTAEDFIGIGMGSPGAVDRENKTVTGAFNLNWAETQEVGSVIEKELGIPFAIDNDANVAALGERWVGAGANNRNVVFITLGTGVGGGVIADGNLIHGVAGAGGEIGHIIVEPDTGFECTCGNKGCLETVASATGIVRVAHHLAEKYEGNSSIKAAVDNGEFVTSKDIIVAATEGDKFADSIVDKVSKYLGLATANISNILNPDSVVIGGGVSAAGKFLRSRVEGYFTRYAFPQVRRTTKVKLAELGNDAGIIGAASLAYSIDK

OC[C@H]1OC(O)[C@H](O)[C@@H](O)[C@@H]1O (stereo partly shown) [glucose]
Vmax Glucokinase: 914 U/g total protein extract
